Here are results for four molecules from patent publication US7947736B2, “Oligomeric compounds” (BTG International Limited, priority 2004, dated 2011).

Data set [1] can be described thus: Ketogenic activity after oral administration: plasma β-hydroxybutyrate in rats (Ranbut assay). To be noted: 300 mg/kg po; for maximum increase of plasma concentration of β-hydroxybutyrate: male Sprague-Dawley rats, versus baseline (T=0). On the procedure:
Male Sprague-Dawley rats (weight range 200-250 g; Clarles River, Margate, Kent) were used. The rats were group-housed in polypropylene cages at a temperature of 21±4° C., 55±20% humidity on a standard 12 hour light/dark cycle (lights on at 6.00 am). […] Animals were acclimatized to these conditions for at least one week before experimentation.
The sodium salt of D-β-hydroxybutyrate monomer (KTX 0101) was used as a comparator for assessing the bioavailability of the oligomeric compounds described here. […] Control animals received the appropriate vehicle (deionized water at 1 ml/kg) via the same route.
In Protocol A, blood (approx […]) was collected by cardiac puncture at 15, 30 and 60 minutes after dosing. In Protocol B, blood (approx 5 ml) was collected by cardiac puncture at 30, 120 and 240 minutes after dosing. In Protocol E, blood (approx 5 ml) was collected by cardiac puncture at 120 and 240 minutes after dosing. Animals were killed by CO2 asphyxiation and blood collected by cardiac puncture. Blood was placed into EDTA-coated plasma collection tubes (Sarstedt 5 ml K2E tubes) and kept on ice prior to centrifugation. Tubes were centrifuged in an Eppendorf 570R centrifuge at 4° C. for 5 minutes at 2500 rpm (1000 g). Plasma samples were initially frozen on dry ice and transferred to a −75° C. freezer until required for analysis.
Commercial clinical assay kits (Ranbut) for the determination of D-β-hydroxybutyrate were obtained from Randox Laboratories (Antrim, UK). The kit quantified NADH via the activity of β-hydroxybutyrate dehydrogenase measured as an increase in OD340 nm. An alkaline pH is necessary to drive the reaction equilibrium towards the production of NADH and acetoacetate.
This spectrophotometric assay was modified for application to a 96-well microplate format. The reaction rate was then determined from the increase in OD340 nm over a 1 minute time-course, after allowing a necessary period for the reaction rate to settle.

A short description of data set [2]: Dissolution in deionized water / water solubility. The format is physicochemical. Conditions: dissolved at 300 mg/ml in deionized water (KTX 0202: 300 mg/kg [sic]).
The nature of data set [3]: Ketogenic activity after intravenous injection: plasma β-hydroxybutyrate in rats (Ranbut assay). The format is in vivo, rat. To be noted: 300 mg/kg iv; for plasma concentration of β-hydroxybutyrate (increase to): 15 min after injection. Here is the method: Male Sprague-Dawley rats (weight range 200-250 g) were obtained from Charles River, Margate, Kent.
The compounds were infused via the tail vein at 300 mg/kg (1 ml/kg) over a period of 1 to 2 min.
Animals were killed 15 min later by CO2 asphyxiation and blood was collected by cardiac puncture.

A value given as a limit tells only on which side of the number the result lay.

For the molecule “1-3 butandiol, di-(tri(R)-3-hydroxybutyrate)ester [KTX 0203]”, in data set [1], the “maximum increase of plasma concentration of β-hydroxybutyrate” value (from here on “maximum increase … of β-hydroxybutyrate”) turned out to be 0.4 mM. In addition, in data set [1] (rats), the “magnitude of increase in plasma β-hydroxybutyrate compared with KTX 0101” value (“magnitude of increase” for short) is recorded as “at least as great as those produced by KTX 0101”.

Consider `C[C@@H]1CC(=O)O[C@H](C)CC(=O)O[C@H](C)CC(=O)O1` [(R)-3-β-hydroxybutyrate triolide, reference compound], for which the “maximum increase … of β-hydroxybutyrate” value in data set [1] is 0.5 mM. Moreover, in data set [1] (rats), the “magnitude of increase” value is reported as “at least as great as that evoked by oral administration of the equivalent dose of KTX 0101”.

Turning to `C[C@@H](O)CC(=O)[O-].[Na+]` [KTX 0101, sodium D-β-hydroxybutyrate, reference compound], in data set [2], the “appearance of the solution” value is on record as “clear solution” and the “pH of the solution” value was 7.0. For the same molecule, the “maximum increase … of β-hydroxybutyrate” value in data set [1] stood at 0.4 mM. Besides, in data set [1] (rats), the “time at which plasma β-hydroxybutyrate was still significantly elevated” value turned out to be 1 h, the “time at which the maximum increase of plasma β-hydroxybutyrate was observed” value amounted to 15 min, the “time by which plasma β-hydroxybutyrate returned to control values” is not above 2 h and the “time until which plasma β-hydroxybutyrate plateaued at the maximum level” value was 30 min. Moreover, the “plasma concentration of β-hydroxybutyrate (increase to)” value in data set [3] is recorded as 1.0 mM.

Consider `CC(O)CCOC(=O)C[C@@H](C)OC(=O)C[C@@H](C)OC(=O)C[C@@H](C)O` (stereo partly drawn) [KTX 0202, 1-(tri(R)-3-hydroxybutyryl-butane-1,3-diol) ester], for which, in data set [2], the “appearance of the solution” value is reported as “slightly opaque solution” and the “pH of the solution” value was found to be 6.0. The “maximum increase … of β-hydroxybutyrate” value in data set [1] came out at 0.4 mM. For the same molecule, in data set [1] (rats), the “biological half-life relative to KTX 0101” value is given as “improved biological half-life relative to KTX 0101”, the “magnitude of increase” value is “at least as great as those produced by KTX 0101”, the “oral bioavailability” value is listed as “orally bioavailable” and the “time at which plasma β-hydroxybutyrate was still significantly elevated” value is reported as 2 h. For the same molecule, in data set [1] (rats), the “time at which the maximum increase of plasma β-hydroxybutyrate was observed” value was determined as 30 min and the “time by which plasma β-hydroxybutyrate returned to control values” is recorded as not above 4 h. Further, in data set [3], the “bioavailability by the intravenous route” value is “bioavailable when injected via the intravenous route” and the “plasma concentration of β-hydroxybutyrate (increase to)” value stood at 1.7 mM. Besides, in data set [3] (15 min), the “increase of plasma β-hydroxybutyrate at 15 min, more than KTX 0101” value turned out to be 60%.
